This note sets out measurements from patent publication US4847247A, “Penicillin derivatives as anti-inflammatory and antidegenerative agents” (Merck & Co., Inc., priority 1986, dated 1989).

The target in the first assay is T1, Human Polymorphonuclear Leukocyte Elastase (Homo sapiens, UniProt P08246).
T1 construct: Crude extract of human polymorphonuclear leukocytes (PMN) containing elastase activity; endogenous in cells; host or cells: human polymorphonuclear leukocytes (crude extract)
T1 sequence (P08246 30-247 limits assumed): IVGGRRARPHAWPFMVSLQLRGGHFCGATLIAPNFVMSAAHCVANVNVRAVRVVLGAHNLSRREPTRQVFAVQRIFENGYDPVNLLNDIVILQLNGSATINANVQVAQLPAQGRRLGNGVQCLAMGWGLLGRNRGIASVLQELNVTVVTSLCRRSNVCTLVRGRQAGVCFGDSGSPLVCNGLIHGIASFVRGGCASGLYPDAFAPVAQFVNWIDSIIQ
Nature of the assay: Inhibition of human polymorphonuclear leukocyte (granulocyte) elastase via hydrolysis of Boc-AAPAN. In kind it is biochemical.
Conditions: not given
Here is the method:
Enzyme assay for the Inhibition of Human Polymorphonuclear Leukocyte Elastase Via Hydrolysis of N-t-Boc-alanyl-alanyl-prolylalanine-p-nitroanilide
0.05M TES (N-tris[hydroxymethyl]methyl-2-amino-ethanesulfonic acid) buffer, pH 7.5.
0.2 mM N-t-Boc-alanyl-alanyl-prolyl-alanine-p-nitroanilide (Boc-AAPAN).
To prepare substrate, the solid (m.w. 550) was first dissolved in 10.0 ml DMSO. Buffer at pH 7.5 was then added to a final volume of 100 ml.
Crude extract of human polymorphonuclear leukocytes (PMN) containing elastase activity.
Inhibitors (cephalosporin sulfoxide esters) to be tested dissolved in DMSO just before use.
To 1.0 ml of 0.2 mM Boc-AAPAN in a cuvette, 0.01-0.1 ml of DMSO with or without inhibitor was added. After mixing, a measurement was taken at 410 mμ to detect any spontaneous hydrolysis due to of test compound. 0.05 Milliliters of PMN extract was then added and the αOD/minute at 410 mμ was measured and recorded. Beckman model 35 spectrophotometer was used.
The elastase activity in the crude PMN extract may vary from one preparation to another. A control of each new batch is run, and the volume added in the assay procedure is adjusted according to activity.
For `CC1(C)[C@H](C(=O)OCc2ccccc2)N2C(=O)[C@@H](NC(=O)C(F)(F)F)[C@H]2S1(=O)=O` [6β-CF3 CONH / 2 / OBZ], the IC50 was 4.6 µM. Compound `CC(OC(=O)NCc1ccccc1)[C@H]1C(=O)N2[C@@H](C(=O)OCc3ccccc3)C(C)(C)S(=O)(=O)[C@H]12` (stereo partly shown) [drawing 28 / 2 / OBZ] gave an IC50 of 1.2 µM. Take `CC1(C)[C@H](C(=O)OCc2ccccc2)N2C(=O)[C@H](COC(=O)NCc3ccccc3)[C@H]2S1(=O)=O` [6α-CH2 O(CO)NH(BZ) / 2 / OBZ]: the midpoint of inhibition, the IC50, lay at 8.22 µM. For `CN(C(=O)C(F)(F)F)[C@H]1C(=O)N2[C@@H](C(=O)OCc3ccccc3)C(C)(C)S(=O)(=O)[C@H]12` [6α-CF3 CON(CH3) / 2 / OBZ, Benzyl 6α-(N-methyltrifluoroacetamido)penicillanate-1,1-dioxide], the IC50 is 0.446 µM. Same read-out and setting: the figure for `CCO[C@H]1C(=O)N2[C@@H](C(=O)OCc3ccc(C(=O)O)cc3)C(C)(C)S(=O)(=O)[C@H]12` [6α-OC2 H5 / 2 / OBZ(p-COOH)] is 1.46 µM; for `CC1(C)[C@H](C(=O)OCc2ccccc2)N2C(=O)[C@@H](COC(=O)NCc3ccccc3)[C@H]2S1(=O)=O` [6β-CH2 O(CO)NH(BZ) / 2 / OBZ] it is 1.44 µM.

The assay is the same for the next values; noted with them: crude human PMN extract, 0.2 mM Boc-AAPAN, pH 7.5, 410 mμ, 2 minutes after zero time; read-out: IC50 (dosage for 50% inhibition of the enzyme activity) (converted).
Regarding `CC1(C)[C@H](C(=O)c2ccccc2)N2C(=O)[C@@H](NC(=O)C(F)(F)F)[C@H]2S1(=O)=O` [6β-CF3 CONH / 2 / Ph], the IC50 was 2.47 µM. As for `CC1(C)S[C@@H]2C(OC(=O)COc3ccccc3)C(=O)N2[C@H]1C(=O)OCc1ccccc1` (stereo partly shown) [C6 H5 OCH2 COO / 0 / OBZ], the IC50 is 45.3 µM. With `Cc1ccc(S(=O)(=O)C[C@H]2C(=O)N3[C@@H](C(=O)OCc4ccccc4)C(C)(C)S(=O)(=O)[C@H]23)cc1` [6α-(TS)CH2 / 2 / OBZ (2nd)], the IC50 is 4.07 µM.

In the case of `Cc1ccc(S(=O)(=O)C[C@H]2C(=O)N3[C@@H]2[S+]([O-])C(C)(C)[C@@H]3C(=O)OCc2ccccc2)cc1` (stereo partly drawn) [6α-(TS)CH2 / 1 / OBZ], the IC50 is 8.41 µM. As for `CO[C@H]1C(=O)N2[C@@H](C(=O)OCC(F)(F)F)C(C)(C)S(=O)(=O)[C@H]12` [6α-OCH3 / 2 / OCH2 CF3], the IC50 was 11.6 µM. Still for that read-out and setting: the figure for `CN(Cc1ccc(C(=O)OC(C)(C)C)cc1)C(=O)[C@@H]1N2C(=O)[C@H](NC(=O)C(F)(F)F)[C@H]2S(=O)(=O)C1(C)C` [6α-CF3 (CO)NH / 2 / N(CH3)BZ(p-COOtBu)] is 1.28 µM; for `CC(C)(C)OC(=O)c1ccc(COC(=O)[C@@H]2N3C(=O)[C@@H](NC(=O)C(F)(F)F)[C@H]3S(=O)(=O)C2(C)C)cc1` [6β-CF3 (CO)NH / 2 / OBZ(p-COOtBu)] it is 0.935 µM; for `COC(=O)[C@@H]1N2C(=O)[C@H](OC)[C@H]2S(=O)(=O)C1(C)C` [6α-OCH3 / 2 / OCH3] it is 72.1 µM. For `CC1(C)[C@H](C(=O)OCc2ccc(C(=O)O)cc2)N2C(=O)[C@H](NC(=O)C(F)(F)F)[C@H]2S1(=O)=O` [6α-CF3 (CO)NH / 2 / OBZ(p-COOH)], the half-maximal inhibitory concentration (IC50) is 0.0836 µM. In the case of `CC(OC(=O)N(Cc1ccccc1)C(=O)NCc1ccccc1)[C@H]1C(=O)N2[C@@H](C(=O)OCc3ccccc3)C(C)(C)S(=O)(=O)[C@H]12` (stereo partly shown) [drawing 30 / 2 / OBZ], the IC50 is 0.0789 µM. As to `CO[C@H]1C(=O)N2[C@@H](C(=O)OCc3ccccc3)C(C)(COC(C)=O)S(=O)(=O)[C@H]12` (stereo partly drawn) [α-CH3 O / 2 / OBZ], the IC50 was 9.72 to 14.6 µM. Consider `Cc1ccc(S(=O)(=O)N[C@H]2C(=O)N3[C@@H](C(=O)OCc4ccccc4)C(C)(C)S(=O)(=O)[C@H]23)cc1` [6α-(TS)NH / 2 / OBZ], for which the IC50 was 0.406 µM. For the compound `Cc1ccc(S(=O)(=O)OC2C(=O)N3[C@@H]2[S+]([O-])C(C)(C)[C@@H]3C(=O)OCc2ccccc2)cc1` (stereo partly shown) [p-CH3 C6 H4 SO2 O(TsO) / 1 / OBZ], the IC50 was 4.19 µM. Consider `COc1ccc(CNC(=O)[C@@H]2N3C(=O)[C@@H](NC(=O)C(F)(F)F)[C@H]3S(=O)(=O)C2(C)C)cc1` [6β-CF3 (CO)NH / 2 / NHBZ(p-OCH3)], for which the IC50 was 0.647 µM. As for `CC1(C)[C@H](C(=O)OCc2ccc(C(=O)O)cc2)N2C(=O)[C@@H](NC(=O)C(F)(F)F)[C@H]2S1(=O)=O` [6β-CF3 (CO)NH / 2 / OBZ(p-COOH)], the IC50 is 2.09 µM.

On to `CC1(C)S[C@@H]2[C@@H](COC(=O)NCc3ccccc3)C(=O)N2[C@H]1C(=O)OCc1ccccc1` [6α-CH2 O(CO)NH(BZ) / 0 / OBZ], for which the IC50 was 11 µM. `CC(=O)O[C@H]1C(=O)N2[C@@H]1[S+]([O-])C(C)(C)[C@@H]2C(=O)OCc1ccccc1` (stereo partly shown) [CH3 COO / 1 / OBZ]: the IC50 is 13.7 µM. On to `CC1(C)S[C@@H]2[C@@H](NC(=O)C(F)(F)F)C(=O)N2[C@H]1C(=O)OCc1ccccc1` [6α-CF3 CONH / 0 / OBZ, Benzyl 6α-trifluoroacetamidopenicillanate], for which the IC50 is 9.94 µM. `CC(=O)O[C@H]1C(=O)N2[C@@H]1SC(C)(C)[C@@H]2C(=O)OCc1ccccc1` [CH3 COO / 0 / OBZ]: the IC50 is 28.6 µM. On to `CN(C(=O)C(F)(F)F)[C@H]1C(=O)N2[C@@H]1[S+]([O-])C(C)(C)[C@@H]2C(=O)OCc1ccccc1` (stereo partly drawn) [6α-CF3 CON(CH3) / 1 / OBZ], for which the IC50 is 6.94 µM. On to `CC(O)[C@H]1C(=O)N2[C@@H]1SC(C)(C)[C@@H]2C(=O)OCc1ccccc1` (stereo partly drawn) [6α-CH3 CH(OH) / 0 / OBZ], for which the IC50 is 59.6 µM. For `Cc1ccc(S(=O)(=O)C[C@H]2C(=O)N3[C@@H](C(=O)OCc4ccccc4)C(C)(C)S(=O)(=O)[C@H]23)cc1` [6α-(TS)CH2 / 2 / OBZ], the IC50 was 0.61 µM. `CN(Cc1ccc(C(=O)O)cc1)C(=O)[C@@H]1N2C(=O)[C@H](NC(=O)C(F)(F)F)[C@H]2S(=O)(=O)C1(C)C` [6α-CF3 (CO)NH / 2 / N(CH3)BZ(p-COOH)]: the IC50 is 1.42 µM. `CC[C@@]1(NC(=O)C(F)(F)F)C(=O)N2[C@@H](C(=O)OCc3ccccc3)C(C)(C)S(=O)(=O)[C@@H]21` [β-CF3 CONH / α-C2 H5 / 2 / OBZ, benzyl 6α-ethyl-6β-trifluoroacetamidopenicillanate-1,1-dioxide]: the IC50 is 6.49 µM. `Cc1ccc(S(=O)(=O)N[C@H]2C(=O)N3[C@@H]2SC(C)(C)[C@@H]3C(=O)OCc2ccccc2)cc1` [6α-(TS)NH / 0 / OBZ]: the IC50 is 0.217 µM. On to `CC1(C)S[C@@H]2[C@H](NC(=O)C(F)(F)F)C(=O)N2[C@H]1C(=O)OCc1ccccc1` [6β-CF3 CONH / 0 / OBZ, benzyl 6β-trifluoroacetamidopenicillanate], for which the IC50 is 29.8 µM. With `C[C@@H](OC(=O)OCc1ccccc1)[C@H]1C(=O)N2[C@@H](C(=O)OCc3ccccc3)C(C)(C)S(=O)(=O)[C@H]12` [drawing 29 / 2 / OBZ], the IC50 is 0.0997 µM. Consider `CO[C@@]1(NC(=O)C(F)(F)F)C(=O)N2[C@@H](C(=O)OCc3ccccc3)C(C)(C)S(=O)(=O)[C@@H]21` [β-CF3 CONH / α-CH3 O / 2 / OBZ], for which the IC50 was 19.4 µM. For `CN(C(=O)C(F)(F)F)[C@H]1C(=O)N2[C@@H]1SC(C)(C)[C@@H]2C(=O)OCc1ccccc1` [6α-CF3 CON(CH3) / 0 / OBZ, benzyl 6α-(N-methyltrifluoroacetamido)penicillinate], the IC50 was 7.2 µM. Consider `CC1(C)[C@H](C(=O)OCc2ccccc2)N2C(=O)[C@H](OCc3ccccc3)[C@H]2S1(=O)=O` [6α-OBZ / 2 / OBZ], for which the IC50 is 9.31 µM. Take `CN(CC(=O)OC(C)(C)C)C(=O)[C@@H]1N2C(=O)[C@H](NC(=O)C(F)(F)F)[C@H]2S(=O)(=O)C1(C)C` [6α-CF3 (CO)NH / 2 / N(CH3)(CH2 COOtBu)]: the IC50 was 1.48 µM. Same read-out and setting: to `CC1(C)[C@H](C(=O)OCc2ccc(C(=O)O)cc2)N2C(=O)[C@H](NC(=O)C(F)(F)F)[C@H]2[S+]1[O-]` (stereo partly drawn) [6α-CF3 (CO)NH / 1 / OBZ(p-COOH)] belongs 1.08 µM; to `CO[C@H]1C(=O)N2[C@@H](C(=O)OCC(=O)OC(C)(C)C)C(C)(C)S(=O)(=O)[C@H]12` [6α-OCH3 / 2 / OCH2 COOtBu], 7.95 µM; to `CC1(C)[C@H](C(=O)OCC(F)(F)F)N2C(=O)[C@H](NC(=O)C(F)(F)F)[C@H]2S1(=O)=O` [6α-CF3 CONH / 2 / OCH2 CF3], 0.235 µM. Turning to `CC1(C)[C@H](C(=O)OCc2ccccc2)N2C(=O)C(OC(=O)COc3ccccc3)[C@H]2[S+]1[O-]` (stereo partly shown) [C6 H5 OCH2 COO / 1 / OBZ], the IC50 was 10.9 µM.

Still in this assay, the particulars now being: read-out: IC50 (dosage for 50% inhibition of the enzyme activity); crude human PMN extract, 0.2 mM Boc-AAPAN, pH 7.5, 410 mμ, 2 minutes after zero time.
In the case of `CC1(C)[C@H](C(=O)OCc2ccccc2)N2C(=O)C(OC(=O)Cc3ccccc3)[C@H]2S1(=O)=O` (stereo partly shown) [(BZ)COO / 2 / OBZ], the IC50 is 8.74 µM. As for `CC1(C)S[C@@H]2C(OC(=O)Cc3ccccc3)C(=O)N2[C@H]1C(=O)OCc1ccccc1` (stereo partly shown) [(BZ)COO / 0 / OBZ], the IC50 is 47 µM.
